9 molecules from doi:10.1101/2021.06.16.448769v1 (bioRxiv, 2021) can be followed below.

pKd: −log10 of the molar value. Where two headings read alike, the source gives them in different places. Bridge positions count the residues as written; N and C are the ends. Square brackets hold non-standard residues; d marks the D form. Ends that are not written are not given here. Peptide text beside a SMILES is read from it. * marks the point of attachment. Cam = NC(=O)C*

In test [1] the target is human C5 (Homo sapiens, UniProt P01031). As to the kind of experiment: SPR multi-cycle kinetics, binding to human C5. The conditions noted are these: for fold change in KD relative to parent: relative to the unmodified parent knob domain, Figure 5H.
The subject of test [2] is C5 activation (C5b-6), alternative pathway. As to the kind of experiment: Alternative pathway. The class given is biochemical.
[3] abbreviates: KD, peptide after reduction and capping of cysteines with iodoacetamide (IAM).
Setting [4] is: KD, reduced and IAM-capped knob domains, S4.
Where [5] appears, read: reduced and IAM-capped knob domains, S4.

Chain of human C5 (P01031 19-673 limits assumed): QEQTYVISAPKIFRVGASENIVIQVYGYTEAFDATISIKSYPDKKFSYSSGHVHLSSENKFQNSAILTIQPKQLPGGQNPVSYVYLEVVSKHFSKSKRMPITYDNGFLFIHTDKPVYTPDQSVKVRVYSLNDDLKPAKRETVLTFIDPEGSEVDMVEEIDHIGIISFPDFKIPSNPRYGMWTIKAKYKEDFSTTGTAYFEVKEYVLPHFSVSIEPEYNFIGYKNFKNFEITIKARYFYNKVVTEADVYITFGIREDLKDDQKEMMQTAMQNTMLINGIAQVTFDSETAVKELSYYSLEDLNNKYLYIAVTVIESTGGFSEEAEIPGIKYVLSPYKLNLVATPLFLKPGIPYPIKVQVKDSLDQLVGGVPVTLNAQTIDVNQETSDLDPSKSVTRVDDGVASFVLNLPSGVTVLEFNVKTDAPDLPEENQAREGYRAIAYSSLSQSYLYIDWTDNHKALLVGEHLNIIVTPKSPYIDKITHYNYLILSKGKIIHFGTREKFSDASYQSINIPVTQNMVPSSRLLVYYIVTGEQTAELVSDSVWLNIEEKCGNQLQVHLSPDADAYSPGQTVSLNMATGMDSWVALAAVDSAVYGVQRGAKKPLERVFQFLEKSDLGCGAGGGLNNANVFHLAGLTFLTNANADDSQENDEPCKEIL
Chain of human C5 (P01031 678-1676 limits assumed): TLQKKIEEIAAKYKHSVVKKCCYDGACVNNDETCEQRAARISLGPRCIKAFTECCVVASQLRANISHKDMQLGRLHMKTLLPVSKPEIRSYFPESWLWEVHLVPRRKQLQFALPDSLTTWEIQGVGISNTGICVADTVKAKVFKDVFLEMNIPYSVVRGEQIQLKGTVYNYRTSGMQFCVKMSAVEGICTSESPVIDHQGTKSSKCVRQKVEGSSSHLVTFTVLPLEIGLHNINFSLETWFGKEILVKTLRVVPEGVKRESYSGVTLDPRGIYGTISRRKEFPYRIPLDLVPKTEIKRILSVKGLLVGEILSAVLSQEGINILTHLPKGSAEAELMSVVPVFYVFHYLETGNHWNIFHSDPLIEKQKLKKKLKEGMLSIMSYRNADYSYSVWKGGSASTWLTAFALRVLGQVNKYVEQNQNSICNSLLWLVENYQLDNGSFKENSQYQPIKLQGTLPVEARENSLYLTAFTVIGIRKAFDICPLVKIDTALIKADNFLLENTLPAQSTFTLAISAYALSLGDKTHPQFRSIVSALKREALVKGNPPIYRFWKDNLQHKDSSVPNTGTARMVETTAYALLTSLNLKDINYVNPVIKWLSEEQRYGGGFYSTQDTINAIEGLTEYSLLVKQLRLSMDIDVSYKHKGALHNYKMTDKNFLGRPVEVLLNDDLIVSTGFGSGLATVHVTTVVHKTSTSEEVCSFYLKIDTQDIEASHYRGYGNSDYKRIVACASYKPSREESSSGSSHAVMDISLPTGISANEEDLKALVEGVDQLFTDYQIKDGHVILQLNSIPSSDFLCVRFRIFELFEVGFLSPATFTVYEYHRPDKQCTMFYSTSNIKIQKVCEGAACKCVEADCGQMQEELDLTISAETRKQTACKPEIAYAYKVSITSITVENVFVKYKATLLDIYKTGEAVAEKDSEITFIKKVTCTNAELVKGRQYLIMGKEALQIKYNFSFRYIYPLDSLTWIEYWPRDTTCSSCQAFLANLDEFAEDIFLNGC

By pKd is commonly meant the Kd on a negative log10 scale, so that one unit is a factor of ten. Broadly, the koff is the rate constant with which the complex falls apart. Read a high koff as fast dissociation. For orientation: kon means the second-order rate constant of association. A low value points to slow association. In the case of `CC[C@H](C)[C@H](NC(=O)[C@H](C)NC(=O)[C@@H](NC(=O)CNC(=O)[C@H](CSCC(N)=O)NC(=O)[C@H](CCC(=O)O)NC(=O)[C@H](CO)NC(=O)[C@H](Cc1c[nH]c2ccccc12)NC(=O)CNC(=O)[C@H](CCC(=O)O)NC(=O)[C@@H]1CCCN1C(=O)[C@H](CSCC(N)=O)NC(=O)[C@@H](N)[C@@H](C)O)C(C)C)C(=O)N[C@@H](Cc1ccc(O)cc1)C(=O)NCC(=O)N[C@@H](Cc1ccc(O)cc1)C(=O)N[C@@H](CCC(=O)O)C(=O)N[C@@H](CSCC(N)=O)C(=O)NCC(=O)N[C@@H](CCCNC(=N)N)C(=O)N[C@@H](Cc1c[nH]c2ccccc12)C(=O)NCC(=O)N[C@@H](CSCC(N)=O)C(=O)NCC(=O)N[C@@H](Cc1c[nH]cn1)C(=O)N[C@@H](Cc1ccccc1)C(=O)N[C@@H](CC(C)C)C(=O)N[C@@H](CC(N)=O)C(=O)N[C@@H](CO)C(=O)NCC(=O)N1CCC[C@H]1C(=O)N[C@@H](CC(N)=O)C(=O)N[C@H](C(=O)N[C@@H](CO)C(=O)N1CCC[C@H]1C(=O)N[C@@H](Cc1ccc(O)cc1)C(=O)N[C@H](C(=O)N[C@@H](CO)C(=O)N[C@H](C(=O)O)[C@@H](C)O)C(C)C)[C@@H](C)CC` [K92 chemFE reduced and capped] (H-TC(Cam)PEGWSEC(Cam)GVAIYGYEC(Cam)GRWGC(Cam)GHFLNSGPNISPYVST-OH; N-terminus assumed), the pKd was 5.70 in test [1] (setting [3]) and 5.63 in test [1] (setting [4]). The koff in test [1] (setting [5]) was 0.000172 s⁻¹. Further, in test [1] (setting [5]), the kon was 72.9 M⁻¹ s⁻¹.

With `CC[C@H](C)[C@@H]1NC(=O)[C@H](CCCCNC(C)=O)NC(=O)[C@H](C(C)C)NC(=O)CNC(=O)[C@@H]2CSSC[C@@H](C(=O)NCC(=O)N[C@@H](Cc3c[nH]cn3)C(=O)N[C@@H](Cc3ccccc3)C(=O)N[C@@H](CC(C)C)C(=O)N[C@@H](CC(N)=O)C(=O)N[C@@H](CO)C(=O)NCC(=O)N3CCC[C@H]3C(=O)N[C@@H](CC(N)=O)C(=O)N[C@H](C(=O)N[C@@H](CO)C(=O)N3CCC[C@H]3C(=O)N[C@@H](Cc3ccc(O)cc3)C(=O)N[C@H](C(=O)N[C@@H](CO)C(=O)N[C@H](C(=O)O)[C@@H](C)O)C(C)C)[C@@H](C)CC)NC(=O)CNC(=O)[C@H](Cc3c[nH]c4ccccc34)NC(=O)[C@H](CCCNC(=N)N)NC(=O)CNC(=O)[C@H](CSSC[C@H](NC(=O)[C@@H](N)[C@@H](C)O)C(=O)N3CCC[C@H]3C(=O)N[C@@H](CCC(=O)O)C(=O)NCC(=O)N[C@@H](Cc3c[nH]c4ccccc34)C(=O)N[C@@H](CO)C(=O)N[C@@H](CCC(=O)O)C(=O)N2)NC(=O)[C@H](CCC(=O)O)NC(=O)[C@H](Cc2ccc(O)cc2)NC(=O)CNC(=O)[C@H](Cc2ccc(O)cc2)NC1=O` [K92chemFE A12K(Ac)] (H-TCPEGWSECGVK(Ac)IYGYECGRWGCGHFLNSGPNISPYVST-OH; disulfide 2-18, 9-23; N-terminus and C-terminus assumed), the “fold change in KD relative to parent” value in test [1] amounted to 130.2. Moreover, in test [2], the “effect in AP ELISA (in words)” value is “two-fold increase in efficacy”.

Turning to `CC[C@H](C)[C@@H]1NC(=O)[C@H](CC(N)=O)NC(=O)[C@H](C(C)C)NC(=O)CNC(=O)[C@@H]2CSSC[C@@H](C(=O)NCC(=O)N[C@@H](Cc3c[nH]cn3)C(=O)N[C@@H](Cc3ccccc3)C(=O)N[C@@H](CC(C)C)C(=O)N[C@@H](CC(N)=O)C(=O)N[C@@H](CO)C(=O)NCC(=O)N3CCC[C@H]3C(=O)N[C@@H](CC(N)=O)C(=O)N[C@H](C(=O)N[C@@H](CO)C(=O)N3CCC[C@H]3C(=O)N[C@@H](Cc3ccc(O)cc3)C(=O)N[C@H](C(=O)N[C@@H](CO)C(=O)N[C@H](C(=O)O)[C@@H](C)O)C(C)C)[C@@H](C)CC)NC(=O)CNC(=O)[C@H](Cc3c[nH]c4ccccc34)NC(=O)[C@H](CCCNC(=N)N)NC(=O)CNC(=O)[C@H](CSSC[C@H](NC(=O)[C@@H](N)[C@@H](C)O)C(=O)N3CCC[C@H]3C(=O)N[C@@H](CCC(=O)O)C(=O)NCC(=O)N[C@@H](Cc3c[nH]c4ccccc34)C(=O)N[C@@H](CO)C(=O)N[C@@H](CCC(=O)O)C(=O)N2)NC(=O)[C@H](CCC(=O)O)NC(=O)[C@H](Cc2ccc(O)cc2)NC(=O)CNC(=O)[C@H](Cc2ccc(O)cc2)NC1=O` [K92chemFE A12N] (H-TCPEGWSECGVNIYGYECGRWGCGHFLNSGPNISPYVST-OH; disulfide 2-18, 9-23; N-terminus and C-terminus assumed), the “fold change in KD relative to parent” value in test [1] was determined as 4.6.

`CC[C@H](C)[C@H](NC(=O)[C@H](CC(N)=O)NC(=O)[C@@H]1CCCN1C(=O)CNC(=O)[C@H](CO)NC(=O)[C@H](CC(N)=O)NC(=O)[C@H](CC(C)C)NC(=O)[C@H](Cc1ccccc1)NC(=O)[C@H](Cc1c[nH]cn1)NC(=O)CNC(=O)[C@@H]1CSSC[C@@H]2NC(=O)[C@H](CCC(=O)O)NC(=O)[C@H](CO)NC(=O)[C@H](Cc3c[nH]c4ccccc34)NC(=O)CNC(=O)[C@H](CCC(=O)O)NC(=O)[C@@H]3CCCN3C(=O)[C@@H](NC(=O)[C@@H](N)[C@@H](C)O)CSSC[C@H](NC(=O)[C@H](CCC(=O)O)NC(=O)[C@H](Cc3ccc(O)cc3)NC(=O)CNC(=O)[C@H](Cc3ccc(O)cc3)NC(=O)[C@H]([C@@H](C)CC)NC(=O)[C@@H](Cc3c[nH]c4ccccc34)NC(=O)[C@H](C(C)C)NC(=O)CNC2=O)C(=O)NCC(=O)N[C@@H](CCCNC(=N)N)C(=O)N[C@@H](Cc2c[nH]c3ccccc23)C(=O)NCC(=O)N1)C(=O)N[C@@H](CO)C(=O)N1CCC[C@H]1C(=O)N[C@@H](Cc1ccc(O)cc1)C(=O)N[C@H](C(=O)N[C@@H](CO)C(=O)N[C@H](C(=O)O)[C@@H](C)O)C(C)C` [K92chemFE A12d-W] (H-TCPEGWSECGV[dW]IYGYECGRWGCGHFLNSGPNISPYVST-OH; disulfide 2-18, 9-23; N-terminus and C-terminus assumed): in test [1], the “fold change in KD relative to parent” value amounted to 165.6.

Regarding `CC[C@H](C)[C@@H]1NC(=O)[C@H](C)NC(=O)[C@H](C(C)C)NC(=O)CNC(=O)[C@@H]2CSSC[C@@H]3NC(=O)CNC(=O)[C@H](Cc4c[nH]c5ccccc45)NC(=O)[C@H](CCCNC(=N)N)NC(=O)CNC(=O)[C@H](CSSC[C@H](NC(=O)[C@H]([C@@H](C)O)NC(=O)[C@H](Cc4ccc(O)cc4)NC(=O)[C@@H]4CCCN4C(=O)[C@H](CO)NC(=O)[C@H]([C@@H](C)CC)NC(=O)[C@H](CC(N)=O)NC(=O)[C@@H]4CCCN4C(=O)CNC(=O)[C@H](CO)NC(=O)[C@H](CC(N)=O)NC(=O)[C@H](CC(C)C)NC(=O)[C@H](Cc4ccccc4)NC(=O)[C@H](Cc4c[nH]cn4)NC(=O)CNC3=O)C(=O)N3CCC[C@H]3C(=O)N[C@@H](CCC(=O)O)C(=O)NCC(=O)N[C@@H](Cc3c[nH]c4ccccc34)C(=O)N[C@@H](CO)C(=O)N[C@@H](CCC(=O)O)C(=O)N2)NC(=O)[C@H](CCC(=O)O)NC(=O)[C@H](Cc2ccc(O)cc2)NC(=O)CNC(=O)[C@H](Cc2ccc(O)cc2)NC1=O` [K92chemFE^cyclic] (cyclo(AIYGYECGRWGCGHFLNSGPNISPYTCPEGWSECGV); disulfide 7-27, 12-34), the “fold change in KD relative to parent” value in test [1] turned out to be 39.7.

For `CSCC[C@@H]1NC(=O)[C@@H]2CCCN2C(=O)[C@@H]2CSSC[C@H](NC(=O)[C@H](CCCNC(=N)N)NC(=O)CNC(=O)[C@H](C(C)C)NC1=O)C(=O)N[C@@H](CC(C)C)C(=O)N[C@@H](C)C(=O)N1CCC[C@H]1C(=O)N[C@@H](CCCNC(=N)N)C(=O)N[C@@H](CC(N)=O)C(=O)N[C@@H]([C@@H](C)O)C(=O)N[C@@H](CO)C(=O)N[C@H]1CSSC[C@H](NC(=O)[C@H](Cc3ccccc3)NC(=O)[C@H](CC(=O)O)NC(=O)[C@H](CC(=O)O)NC(=O)[C@H](Cc3c[nH]c4ccccc34)NC(=O)[C@H](CO)NC(=O)[C@H](CCCNC(=N)N)NC(=O)[C@H](Cc3ccc(O)cc3)NC(=O)[C@H](CO)NC(=O)[C@H](Cc3ccccc3)NC(=O)CNC(=O)[C@H](CC(=O)O)NC(=O)[C@@H]3CCCN3C1=O)C(=O)N2` [K149chemFE^cyclic] (cyclo(APRNTSCPDGFSYRSWDDFCCPMVGRCL); disulfide 7-20, 21-27 (inferred); ring closure inferred), in test [1], the “fold change in KD relative to parent” value was determined as 0.2.

In the case of `CSCC[C@@H]1NC(=O)[C@@H]2CCCN2C(=O)[C@@H](NC(=O)[C@@H]2CSSC[C@H](NC(=O)[C@@H](N)CO)C(=O)N3CCC[C@H]3C(=O)N[C@@H](CC(=O)O)C(=O)NCC(=O)N[C@@H](Cc3ccccc3)C(=O)N[C@@H](CO)C(=O)N[C@@H](Cc3ccc(O)cc3)C(=O)N[C@@H](CCCNC(=N)N)C(=O)N[C@@H](CO)C(=O)N[C@@H](Cc3c[nH]c4ccccc34)C(=O)N[C@@H](CC(=O)O)C(=O)N[C@@H](CC(=O)O)C(=O)N[C@@H](Cc3ccccc3)C(=O)N2)CSSC[C@@H](C(=O)N[C@@H](CC(C)C)C(=O)N[C@@H](C)C(=O)N2CCC[C@H]2C(=O)N[C@@H](CCCNC(=N)N)C(=O)N[C@@H](CC(N)=O)C(=O)O)NC(=O)[C@H](CCCNC(=N)N)NC(=O)CNC(=O)[C@H](C(C)C)NC1=O` [K149chemSD-A] (H-SCPDGFSYRSWDDFCCPMVGRCLAPRN-OH; disulfide 2-15, 16-22; N-terminus assumed), the pKd in test [1] (read-out: mean KD, SPR multi-cycle kinetics, mean of n=3) is 8.14.

Take “GC(Cam)PPGYKSGVDC(Cam)SPGSEC(Cam)KWGC(Cam)YAVDGRRYGGYGADSGVGS-OH [K57chemFE reduced and capped]”: the negative logarithm of the Kd (pKd) in test [1] (setting [3]) and in test [1] (setting [4]) was 7.12 throughout. Further, the dissociation rate constant (koff) in test [1] (setting [5]) turned out to be 0.000358 s⁻¹. For the same molecule, the on-rate constant (kon) in test [1] (setting [5]) turned out to be 4740 M⁻¹ s⁻¹.

As to “cyclo(ADSGVGSTGCPPGYKSGVDCSPGSECKWGCYAVDGRRYGGYG) (disulfide 10-26, 20-30 (inferred); ring closure inferred) [K57chemFE^cyclic]”, in test [1], the “fold change in KD relative to parent” value is 0.8.
